Experimental data taken from ChEMBL document CHEMBL1201862, “PubChem BioAssay data set” (2004).
Counter-ions that a name gives are not always drawn. Active and inactive are the calls of the source.

How the values were obtained:
cells = assay type: functional
[1] = HepG2 cell cytotoxicity, dose response, cytotoxicity control for non-replicating M. tuberculosis project (AID 489018); assay type: functional; conditions: Mycobacterium tuberculosis
Streptokinase A = target: T1, Streptokinase A (Streptococcus pyogenes serotype M1, UniProt P10520); assay: viability-normalized secreted streptokinase activity reduction – plasminogen activation absorbance, OD405, dose response (AID 1914); assay type: functional, Streptococcus pyogenes M1 GAS;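 also: secreted streptokinase activity via plasminogen activation per viability signal from cell pellet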
T1 sequence (P10520 whole entry): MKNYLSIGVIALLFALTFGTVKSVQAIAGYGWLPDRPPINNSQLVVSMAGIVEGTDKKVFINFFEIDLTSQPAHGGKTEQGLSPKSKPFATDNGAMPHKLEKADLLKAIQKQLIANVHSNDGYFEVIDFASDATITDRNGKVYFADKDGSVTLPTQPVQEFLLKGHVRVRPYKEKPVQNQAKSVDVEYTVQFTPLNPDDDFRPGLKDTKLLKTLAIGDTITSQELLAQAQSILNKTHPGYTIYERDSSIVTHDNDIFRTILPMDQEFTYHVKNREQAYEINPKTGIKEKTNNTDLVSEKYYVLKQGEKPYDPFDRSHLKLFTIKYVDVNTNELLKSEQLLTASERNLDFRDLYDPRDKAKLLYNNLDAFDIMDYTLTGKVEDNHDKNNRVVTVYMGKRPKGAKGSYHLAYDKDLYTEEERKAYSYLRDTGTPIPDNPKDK

[2] = ATP-based viability loss in HEK293T cells – cell-based, CellTiter-Glo luminescence, dry powder, set 2, cytotoxicity control, dose response (AID 720595); assay type: functional; conditions: HEK293
[3] = Vero E6 cell cytotoxicity, dose response, cytotoxicity control for non-replicating M. tuberculosis project, secondary assay (AID 492998); assay type: functional, VeroE6; conditions: Vero C1008
Streptococcus = assay: GAS UMAA2166 growth inhibition – luminescence, BacTiterGlo, counter-screen for streptokinase expression inhibitor project, dose response (AID 1915); assay type: functional, organism-based;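 also: potency for reduction of bacterial viability or growth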
[4] = ATP-based viability loss in HeLa cells – cell-based, CellTiter-Glo luminescence, dry powder, set 2, cytotoxicity control, dose response (AID 720593); assay type: functional
[5] = THP-1 cell cytotoxicity, dose response, cytotoxicity control for non-replicating M. tuberculosis project (AID 489025); assay type: functional
[6] = test system: Streptococcus sp. 'group A'; assay: Streptococcus pyogenes SK(-)GAS viability under kanamycin – luminescence, BacTiterGlo, confirmation, counter-screen for streptokinase expression inhibitor project, dose response (AID 1900); assay type: functional, organism-based
Nonstructural protein 1 = Nonstructural protein 1 (Influenza A virus, UniProt Q194T2); assay type: functional, Influenza A virus (A/California/07/2009(H1N1))
[7] = target: NAD-dependent protein deacylase sirtuin-5, mitochondrial (Homo sapiens, UniProt Q9NXA8); assay: blockers of sirtuin-5 peptide desuccinylation – biochemical, fluorescence imaging, cherry-pick, set 6, dose response (AID 720597)
[8] = A Cell-Based Confirmatory Screen for Compounds that Inhibit VEEV, TC-83 (5).; assay type: functional
[9] = A Cell-Based Confirmatory Screen for Compounds that Inhibit VEEV TC-83 (4).; assay type: functional
[10] = A Cell-Based Confirmatory Screen for Compounds that Inhibit VEEV, TC-83 (8).; assay type: functional
Vasopressin V1b receptor = Vasopressin V1b receptor (Homo sapiens, UniProt P47901); assay: Late-stage results from the probe development effort to identify antagonists of arginine vasopressin receptor 1a (AVPR1a): fluorescence-based cell-based dose response AVPR1b inhibition counterscreen assay.; assay type: functional
Vasopressin V2 receptor = Vasopressin V2 receptor (Homo sapiens, UniProt P30518); assay: Late-stage results from the probe development effort to identify antagonists of arginine vasopressin receptor 1a (AVPR1a): fluorescence-based cell-based dose response AVPR2 inhibition counterscreen assay.; assay type: functional
[11] = Late-stage results from the probe development effort to identify antagonists of arginine vasopressin receptor 1a (AVPR1a): fluorescence-based cell-based dose response OXTR inhibition counterscreen assay.; assay type: functional
[12] = Late-stage results from the probe development effort to identify antagonists of arginine vasopressin receptor 1a (AVPR1a): fluorescence-based cell-based dose response AVPR1a inhibition assay.; assay type: functional
[13] = HepG2 hepatoma cell viability loss – plate reader, dry powder, cytotoxicity control, dose response (AID 651947); assay type: functional, cell-based
[14] = inhibitors of non-replicating M. tuberculosis, dose response, luciferase, dry powder (AID 651620); assay type: functional; conditions: Mycobacterium tuberculosis
[15] = growth inhibition of replicating M. tuberculosis, dose response, counter-screen, dry powder, IC90 (AID 651617); assay type: functional; conditions: Mycobacterium tuberculosis
[16] = inhibitors of non-replicating M. tuberculosis, dose response, luciferase, dry powder (AID 651619); assay type: functional; conditions: Mycobacterium tuberculosis
Bcl-2-like protein 1 = Bcl-2-like protein 1 (Homo sapiens, UniProt Q07817); assay: blockers of BCLXL peptide binding – biochemical, fluorescence polarization, 1536-well, selectivity assay for MCL1 inhibitor project, dose response (AID 2218)
[17] = target: Induced myeloid leukemia cell differentiation protein Mcl-1 (Homo sapiens, UniProt Q07820); assay: blockers of MCL1 binding to BIM peptide – biochemical, fluorescence polarization, BIM-BH3 peptide, 1536-well, dose response (AID 2217)
[18] = P. falciparum Dd2 growth inhibitors, dose response, SYBR Green, cherry-picked samples (AID 1159567); assay type: functional, cell-based
[19] = toxicity to human hepatoma HepG2 cells – cell-based, cherry-picked samples, cytotoxicity control, dose response (AID 1159577); assay type: functional
[20] = Dd2 parasite growth inhibition in erythrocytes – SYBR Green, dry powder samples, set 9, dose response (AID 1159568); assay type: functional, cell-based
[21] = Dd2 parasite growth inhibition in erythrocytes – SYBR Green, dry powder samples, set 4, dose response (AID 1159572); assay type: functional, cell-based
[22] = antimalarial activity against Dd2 parasites – SYBR Green fluorescence, erythrocytes, dry powder, set 2, dose response (AID 1159574); assay type: functional, cell-based
[23] = IC50 of insulin release inhibition, rat insulinoma INS-1E line, 5 mM glucose, cell-based (AID 1117331); assay type: functional
HeLa = assay: viability loss in HeLa cells – cell-based, ATP luminescence, cherry-pick samples, cytotoxicity control, dose response (AID 687004); assay type: functional; conditions: Homo sapiens

Nonstructural protein 1, sequence (Q194T2 whole entry): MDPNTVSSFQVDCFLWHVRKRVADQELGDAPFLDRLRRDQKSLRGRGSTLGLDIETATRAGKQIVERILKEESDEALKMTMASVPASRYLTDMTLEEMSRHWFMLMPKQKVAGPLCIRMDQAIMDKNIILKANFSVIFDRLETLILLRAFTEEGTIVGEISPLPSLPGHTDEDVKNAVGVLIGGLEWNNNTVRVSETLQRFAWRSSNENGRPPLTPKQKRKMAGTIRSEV
Bcl-2-like protein 1, sequence (Q07817 whole entry): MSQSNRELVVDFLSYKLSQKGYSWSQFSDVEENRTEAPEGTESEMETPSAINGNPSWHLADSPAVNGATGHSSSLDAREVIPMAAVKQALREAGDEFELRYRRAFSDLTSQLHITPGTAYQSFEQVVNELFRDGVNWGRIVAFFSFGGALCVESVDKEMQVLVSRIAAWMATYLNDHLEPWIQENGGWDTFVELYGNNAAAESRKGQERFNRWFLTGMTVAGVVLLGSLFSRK
Vasopressin V1b receptor, sequence (P47901 whole entry): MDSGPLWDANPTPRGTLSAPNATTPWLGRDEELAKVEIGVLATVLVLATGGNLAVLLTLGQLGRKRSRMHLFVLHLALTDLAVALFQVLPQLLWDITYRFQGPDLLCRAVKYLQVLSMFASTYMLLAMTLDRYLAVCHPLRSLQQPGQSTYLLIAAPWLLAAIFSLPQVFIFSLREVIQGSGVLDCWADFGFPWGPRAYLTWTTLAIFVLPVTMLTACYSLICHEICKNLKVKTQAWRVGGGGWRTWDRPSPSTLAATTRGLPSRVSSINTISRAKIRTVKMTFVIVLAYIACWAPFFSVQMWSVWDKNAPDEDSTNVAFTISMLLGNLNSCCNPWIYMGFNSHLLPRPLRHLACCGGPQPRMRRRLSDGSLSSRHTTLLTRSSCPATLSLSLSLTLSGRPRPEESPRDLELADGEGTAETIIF
Vasopressin V2 receptor, sequence (P30518 whole entry): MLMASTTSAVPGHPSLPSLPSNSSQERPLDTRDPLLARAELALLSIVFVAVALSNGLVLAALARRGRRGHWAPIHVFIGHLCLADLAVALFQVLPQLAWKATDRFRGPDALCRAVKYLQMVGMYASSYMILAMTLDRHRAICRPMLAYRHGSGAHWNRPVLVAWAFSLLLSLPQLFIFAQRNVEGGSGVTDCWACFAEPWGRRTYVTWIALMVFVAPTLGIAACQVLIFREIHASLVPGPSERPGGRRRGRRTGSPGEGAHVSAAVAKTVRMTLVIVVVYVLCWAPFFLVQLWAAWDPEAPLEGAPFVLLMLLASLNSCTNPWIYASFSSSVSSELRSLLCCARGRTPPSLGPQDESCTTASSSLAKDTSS
NAD-dependent protein deacylase sirtuin-5, mitochondrial, sequence (Q9NXA8 whole entry): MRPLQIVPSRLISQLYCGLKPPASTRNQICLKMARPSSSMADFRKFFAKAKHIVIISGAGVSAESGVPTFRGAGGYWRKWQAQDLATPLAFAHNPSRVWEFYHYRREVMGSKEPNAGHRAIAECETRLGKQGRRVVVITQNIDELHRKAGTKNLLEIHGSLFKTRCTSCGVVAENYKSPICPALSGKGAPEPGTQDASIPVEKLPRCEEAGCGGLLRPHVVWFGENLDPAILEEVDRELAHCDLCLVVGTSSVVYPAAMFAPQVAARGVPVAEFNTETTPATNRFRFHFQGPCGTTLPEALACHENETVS
Induced myeloid leukemia cell differentiation protein Mcl-1, sequence (Q07820 whole entry): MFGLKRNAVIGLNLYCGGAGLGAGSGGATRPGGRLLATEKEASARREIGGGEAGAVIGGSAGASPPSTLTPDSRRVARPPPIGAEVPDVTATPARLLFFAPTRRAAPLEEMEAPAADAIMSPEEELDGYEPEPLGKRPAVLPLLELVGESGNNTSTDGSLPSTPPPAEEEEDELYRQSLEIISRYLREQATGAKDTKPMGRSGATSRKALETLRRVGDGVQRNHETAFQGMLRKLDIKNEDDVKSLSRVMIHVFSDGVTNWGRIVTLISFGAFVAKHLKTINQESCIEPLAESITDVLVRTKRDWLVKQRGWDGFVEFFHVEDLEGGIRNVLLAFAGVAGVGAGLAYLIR

## O=C(Nc1nc(-c2ccccn2)cs1)c1ccco1
cells
  IC50: 1.68 µM (active)
[1]
  CC50: > 20 µM (active)
Streptokinase A
  EC50: > 150 µM (not active)
[2]
  AC50: 7.58 µM (active)
[3]
  CC50: 11.3 µM (active)
Streptococcus
  EC50: > 150 µM (not active)
[4]
  AC50: > 52 µM (inactive)
[5]
  CC50: 6.1 µM (active)
[6]
  EC50: 10.8 µM (active)
Nonstructural protein 1
  IC50: 7.12 µM (active)

## Cc1cccc(S(=O)(=O)N(C)C[C@H]2OCc3cnnn3CCCC(=O)N([C@H](C)CO)C[C@@H]2C)c1
[7]
  AC50: 23.9 µM (active)

## CCN1CCN(Cc2nc3ccc([N+](=O)[O-])cc3c(=O)n2-c2ccccc2)CC1
[8]
  IC50: 0.27 µM (active)
[9]
  IC50: 0.01 µM (active)
[10]
  IC50: 0.32 µM (active)

## Cc1ccccc1N1CCN(c2nc3ccccc3n2CC2CC2)CC1
Vasopressin V1b receptor
  IC50: 15.5 µM (inactive)
Vasopressin V2 receptor
  IC50: 19.4 µM (inactive)
[11]
  IC50: 19.4 µM (inactive)
[12]
  IC50: 7.54 µM (active)

## c1ccc(Cn2cc(CSc3nnc(C4CCCC4)o3)nn2)cc1
[13]
  AC50: > 52 µM (inactive)
[14]
  IC90: 4 µM (active)
[15]
  IC90: 250 µM (active)
[16]
  IC90: 4 µM (active)

## COc1cccc(/C=N/NC(=S)Nc2cccc(C(=O)O)c2)c1O
Bcl-2-like protein 1
  IC50: > 109 µM (not active)
[17]
  IC50: > 109 µM (not active)
Nonstructural protein 1
  IC50: 4.94 µM (active)

## C/C=C/c1ccc([C@@H]2[C@@H]3CN(Cc4cccc(F)c4)C[C@H]2N3)cc1
[18]
  AC50: 4.24 µM (active)
[19]
  AC50: 9.58 µM (active)

## O=C(Nc1ccccc1F)N1CCCCN2[C@H](C1)[C@@H](c1ccc(/C=C/c3ccccc3)cc1)[C@@H]2CO
[20]
  AC50: 7.14 µM (active)

## COc1ccc2c3c([nH]c2c1)[C@H](CO)N(C(C)=O)CC31CCN(C(=O)Nc2ccc(F)cc2)CC1
[21]
  AC50: 0.834 µM (active)

## COc1ccc(S(=O)(=O)N(C)C[C@@H]2OCc3ccccc3-c3c(n(C)c4ccccc34)C(=O)N([C@H](C)CO)C[C@@H]2C)cc1
[22]
  AC50: 6.36 µM (active)

## CCCN1CCCC[C@H]1C(=O)Nc1c(C)cccc1C [ROPIVACAINE HYDROCHLORIDE]
[23]
  IC50: > 33.3 µM (inactive)
HeLa
  AC50: > 52 µM (inactive)
